Source: ChEMBL document CHEMBL5236581, “A Versatile and Sustainable Multicomponent Platform for the Synthesis of Protein Degraders: Proof-of-Concept Application to BRD4-Degrading PROTACs” (J Med Chem, 2022)
≈ marks a conversion by molar mass, not a printed value. Calls of active or inactive are those of the source. The calls are words filed in the database; no cut-off is given here. Where a SMILES comes first, the peptide text is derived from it. [ ]: non-standard residue; d: D form. The star is where a group is joined. JQ1acid = Cc1sc2c(c1C)C(c1ccc(Cl)cc1)=N[C@@H](CC(=O)*)c1nnc(C)n1-2; NHBn(4-(4-Me-thiazol-5-yl)) = Cc1ncsc1-c1ccc(CN*)cc1; Hyp = O=C(O)[C@@H]1C[C@@H](O)CN1; Tle = CC(C)(C)[C@H](N)C(=O)O; Sar = CNCC(=O)O

Legend:
[1] = biological target: von Hippel-Lindau disease tumor suppressor/Bromodomain-containing protein 4 (Homo sapiens) (UniProt O60885+P40337); test: Protac activity at BRD4/VHL E3 ligase in human MDA-MB-231 cells assessed as decrease in BRD4 expression at 1 uM incubated for 4 to 24 hrs by Western blot analysis; type: cell-based; conditions: time lower 4.0 hrs, time upper […]
[2] = Thermodynamic solubility of compound in phosphate buffer at pH 7.4 incubated for 2 hrs with shaking by LC-UV analysis; type: physicochemical; conditions: read-out: Therm_solubility
[3] = Thermodynamic solubility of compound in HCL at pH 2 incubated for 2 hrs with shaking by LC-UV analysis; type: physicochemical; conditions: read-out: Therm_solubility

von Hippel-Lindau disease tumor suppressor/Bromodomain-containing protein 4 (Homo sapiens), sequence (P40337 whole entry, looked up, other chains not shown): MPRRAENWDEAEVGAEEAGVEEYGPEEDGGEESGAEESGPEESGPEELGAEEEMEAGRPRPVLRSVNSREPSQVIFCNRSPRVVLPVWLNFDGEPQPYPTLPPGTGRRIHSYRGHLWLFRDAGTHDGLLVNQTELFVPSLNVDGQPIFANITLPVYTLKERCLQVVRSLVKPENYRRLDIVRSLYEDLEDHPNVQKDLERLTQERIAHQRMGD

| SMILES | Activity [1] | solubility thermodynamic at 2 h [2] | solubility thermodynamic at 2 h [3] |
| --- | --- | --- | --- |
| Cc1ncsc1-c1ccc(CNC(=O)[C@@H]2C[C@@H](O)CN2C(=O)[C@@H](NC(=O)CCCNC(=O)CN2CCN(C(=O)C[C@@H]3N=C(c4ccc(Cl)cc4)c4c(sc(C)c4C)-n4c(C)nnc43)CC2)C(C)(C)C)cc1 | inactive |  |  |
| Cc1sc2c(c1C)C(c1ccc(Cl)cc1)=N[C@@H](CC(=O)NCCCCNC(=O)COc1cccc3c1C(=O)N(C1CCC(=O)NC1=O)C3=O)c1nnc(C)n1-2 (stereo not given in full) |  | 60 µM (≈ 47.1 µg/mL) | 171 µM (≈ 134 µg/mL) |
| Cc1ncsc1-c1ccc(CNC(=O)[C@@H]2C[C@@H](O)CN2C(=O)[C@@H](NC(=O)CNC(=O)CN2CCN(C(=O)C[C@@H]3N=C(c4ccc(Cl)cc4)c4c(sc(C)c4C)-n4c(C)nnc43)CC2)C(C)(C)C)cc1 | inactive |  |  |
| Cc1ncsc1-c1ccc(CNC(=O)[C@@H]2C[C@@H](O)CN2C(=O)[C@@H](NC(=O)CNC(=O)CN(C)C(=O)C[C@@H]2N=C(c3ccc(Cl)cc3)c3c(sc(C)c3C)-n3c(C)nnc32)C(C)(C)C)cc1 (JQ1acid-[Sar]G[Tle][Hyp]-{NHBn(4-(4-Me-thiazol-5-yl))}) | inactive |  |  |
